According to the supplement of paper PMC12463676, “Small-molecule dissolution of stress granules by redox modulation benefits ALS models” (Nature Chemical Biology, 2025):

How the values were obtained:
lipoamide = compound: NC(=O)CCCCC1CCSS1 [lipoamide]; assay: thermal stability z-score vs DMSO; higher = more thermally stabilized by treatment; settings: HeLa, lipoamide concentration 100 µM
Procedure: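 Cellular thermal proteome profiling in HeLa cells. Cells were treated with 100 µM lipoamide for 1 h, with or without 1 mM arsenate for a further 1 h, then heated to ten temperatures (37-66.3 °C), and soluble protein was quantified by TMT mass spectrometry relative to 0.1% DMSO controls. The thermal stability score (sum of log2 fold changes minus the abundance score) was transformed to a z-score; mean of n = 3 experiments.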

potassium arsenate = compound: O=[As]([O-])(O)O.[K+] [potassium arsenate]; assay: as above; settings: HeLa; arsenate concentration 1 mM
Procedure: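 Cellular thermal proteome profiling in HeLa cells treated with 1 mM arsenate for 1 h (DMSO pretreatment), heated to ten temperatures (37-66.3 °C). Soluble protein was quantified by TMT mass spectrometry relative to DMSO controls; the thermal stability score was transformed to a z-score; mean of n = 3 experiments.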

[1] = arsenate co-treatment: 1 mM arsenate 1 h
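Also: each temperature applied for 3 min, abundance score taken as mean log2 fold change at the two lowest temperatures, z-score obtained by mean subtraction and division by SD.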

Target: EIF2S3 (UniProt P41091)
- thermal stability z-score (lipoamide; [1]): 0.159
- thermal stability z-score (lipoamide; arsenate co-treatment: none): -0.567
- thermal stability z-score (potassium arsenate): 1.34

Target: EIF3A (UniProt Q14152)
- thermal stability z-score (lipoamide; [1]): 0.713
- thermal stability z-score (lipoamide; arsenate co-treatment: none): 0.446
- thermal stability z-score (potassium arsenate): 0.432

Target: EIF3B (UniProt P55884)
Chain of UniProt P55884 (P55884 whole entry): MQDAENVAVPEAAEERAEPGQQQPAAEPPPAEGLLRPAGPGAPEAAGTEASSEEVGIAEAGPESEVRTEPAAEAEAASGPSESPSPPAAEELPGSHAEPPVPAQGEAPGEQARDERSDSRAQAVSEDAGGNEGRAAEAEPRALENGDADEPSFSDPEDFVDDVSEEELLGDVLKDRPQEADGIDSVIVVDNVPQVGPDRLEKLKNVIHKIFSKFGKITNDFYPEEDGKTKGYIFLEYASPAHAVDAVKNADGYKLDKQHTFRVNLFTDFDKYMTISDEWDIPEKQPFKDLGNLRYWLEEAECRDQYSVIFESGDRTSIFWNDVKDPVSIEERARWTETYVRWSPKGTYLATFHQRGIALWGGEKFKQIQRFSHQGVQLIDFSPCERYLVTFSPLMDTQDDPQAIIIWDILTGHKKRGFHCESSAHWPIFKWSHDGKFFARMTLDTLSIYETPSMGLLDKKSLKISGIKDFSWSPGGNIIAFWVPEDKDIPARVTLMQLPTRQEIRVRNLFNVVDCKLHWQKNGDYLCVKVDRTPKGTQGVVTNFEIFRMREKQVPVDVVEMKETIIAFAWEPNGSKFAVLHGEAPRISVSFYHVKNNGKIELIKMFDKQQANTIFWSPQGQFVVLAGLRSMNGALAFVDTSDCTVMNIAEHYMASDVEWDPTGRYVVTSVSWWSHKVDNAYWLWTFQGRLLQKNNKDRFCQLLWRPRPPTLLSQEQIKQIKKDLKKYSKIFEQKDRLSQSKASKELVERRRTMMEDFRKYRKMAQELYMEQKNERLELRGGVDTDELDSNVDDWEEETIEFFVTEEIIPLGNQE
- thermal stability z-score (lipoamide; [1]): -0.333
- thermal stability z-score (lipoamide; arsenate co-treatment: none): 0.0629
- thermal stability z-score (potassium arsenate): 0.472

Target: EIF3C (UniProt Q99613)
- thermal stability z-score (lipoamide; [1]): -0.304
- thermal stability z-score (lipoamide; arsenate co-treatment: none): 0.183
- thermal stability z-score (potassium arsenate): 0.498

Target: EIF3D (UniProt O15371)
- thermal stability z-score (lipoamide; [1]): -0.0633
- thermal stability z-score (lipoamide; arsenate co-treatment: none): 0.0556
- thermal stability z-score (potassium arsenate): -0.0622

Target: EIF3E (UniProt P60228)
- thermal stability z-score (lipoamide; [1]): -0.192
- thermal stability z-score (lipoamide; arsenate co-treatment: none): 0.126
- thermal stability z-score (potassium arsenate): -0.113

Target: EIF3F (UniProt O00303)
- thermal stability z-score (lipoamide; [1]): -0.117
- thermal stability z-score (lipoamide; arsenate co-treatment: none): -0.0503
- thermal stability z-score (potassium arsenate): -0.156

Target: EIF3G (UniProt O75821)
Chain of UniProt O75821 (O75821 whole entry): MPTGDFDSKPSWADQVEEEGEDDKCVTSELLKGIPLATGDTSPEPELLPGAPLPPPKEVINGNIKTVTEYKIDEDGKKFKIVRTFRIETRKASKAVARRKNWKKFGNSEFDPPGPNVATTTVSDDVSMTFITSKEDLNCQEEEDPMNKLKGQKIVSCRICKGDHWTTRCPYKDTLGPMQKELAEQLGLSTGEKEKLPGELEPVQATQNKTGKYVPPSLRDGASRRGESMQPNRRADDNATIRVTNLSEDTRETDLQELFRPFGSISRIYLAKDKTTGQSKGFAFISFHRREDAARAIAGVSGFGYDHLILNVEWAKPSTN
- thermal stability z-score (lipoamide; [1]): 0.0353
- thermal stability z-score (lipoamide; arsenate co-treatment: none): -0.0823
- thermal stability z-score (potassium arsenate): 0.711

Target: EIF3H (UniProt O15372)
- thermal stability z-score (lipoamide; [1]): -0.579
- thermal stability z-score (lipoamide; arsenate co-treatment: none): -0.608
- thermal stability z-score (potassium arsenate): 0.162

Target: EIF3I (UniProt Q13347)
- thermal stability z-score (lipoamide; [1]): 0.544
- thermal stability z-score (lipoamide; arsenate co-treatment: none): 0.0305
- thermal stability z-score (potassium arsenate): -0.363

Target: EIF3J (UniProt O75822)
- thermal stability z-score (lipoamide; [1]): 0.395
- thermal stability z-score (lipoamide; arsenate co-treatment: none): -0.118
- thermal stability z-score (potassium arsenate): 0.444

Target: EIF3K (UniProt Q9UBQ5)
- thermal stability z-score (lipoamide; [1]): -0.353
- thermal stability z-score (lipoamide; arsenate co-treatment: none): 0.0198
- thermal stability z-score (potassium arsenate): 0.00475

Target: EIF3L (UniProt Q9Y262)
- thermal stability z-score (lipoamide; [1]): 0.23
- thermal stability z-score (lipoamide; arsenate co-treatment: none): 0.373
- thermal stability z-score (potassium arsenate): -0.297

Target: EIF3M (UniProt Q7L2H7)
Chain of UniProt Q7L2H7 (Q7L2H7 whole entry): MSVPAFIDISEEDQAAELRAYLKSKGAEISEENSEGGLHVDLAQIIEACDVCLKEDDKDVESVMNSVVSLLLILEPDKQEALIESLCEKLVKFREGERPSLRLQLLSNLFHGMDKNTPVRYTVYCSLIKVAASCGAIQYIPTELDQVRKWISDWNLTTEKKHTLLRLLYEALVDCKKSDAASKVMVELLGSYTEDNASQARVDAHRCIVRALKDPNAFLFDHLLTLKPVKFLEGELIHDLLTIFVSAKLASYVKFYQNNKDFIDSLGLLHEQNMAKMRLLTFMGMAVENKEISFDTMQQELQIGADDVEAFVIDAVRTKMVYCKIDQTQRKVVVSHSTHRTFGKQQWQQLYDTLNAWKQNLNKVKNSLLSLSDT
- thermal stability z-score (lipoamide; [1]): 0.136
- thermal stability z-score (lipoamide; arsenate co-treatment: none): -0.372
- thermal stability z-score (potassium arsenate): 0.304

Target: EIF4A1 (UniProt P60842)
- thermal stability z-score (lipoamide; [1]): 0.413
- thermal stability z-score (lipoamide; arsenate co-treatment: none): 0.201
- thermal stability z-score (potassium arsenate): 0.0167

Target: EIF4A2 (UniProt Q14240)
- thermal stability z-score (lipoamide; [1]): 1.14
- thermal stability z-score (lipoamide; arsenate co-treatment: none): 0.893
- thermal stability z-score (potassium arsenate): 0.658

Target: EIF4A3 (UniProt P38919)
- thermal stability z-score (lipoamide; [1]): -0.155
- thermal stability z-score (lipoamide; arsenate co-treatment: none): 0.154
- thermal stability z-score (potassium arsenate): -0.492

Target: EIF4B (UniProt P23588)
- thermal stability z-score (lipoamide; [1]): 0.102
- thermal stability z-score (lipoamide; arsenate co-treatment: none): 0.429
- thermal stability z-score (potassium arsenate): 0.032

Target: EIF4E2 (UniProt O60573)
Chain of UniProt O60573 (O60573 whole entry): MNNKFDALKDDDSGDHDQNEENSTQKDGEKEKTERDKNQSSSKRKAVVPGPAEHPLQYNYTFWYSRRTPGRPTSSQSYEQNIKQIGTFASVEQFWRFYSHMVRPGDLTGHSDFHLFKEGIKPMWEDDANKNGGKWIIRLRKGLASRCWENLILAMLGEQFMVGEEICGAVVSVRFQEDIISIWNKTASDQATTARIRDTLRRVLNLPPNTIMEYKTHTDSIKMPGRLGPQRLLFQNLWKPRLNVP
- thermal stability z-score (lipoamide; [1]): -0.568
- thermal stability z-score (lipoamide; arsenate co-treatment: none): -0.113
- thermal stability z-score (potassium arsenate): -1.43

Target: EIF4E (UniProt P06730)
- thermal stability z-score (lipoamide; [1]): 0.236
- thermal stability z-score (lipoamide; arsenate co-treatment: none): -0.135
- thermal stability z-score (potassium arsenate): 0.461

Target: EIF4ENIF1 (UniProt Q9NRA8)
Chain of UniProt Q9NRA8 (Q9NRA8 whole entry): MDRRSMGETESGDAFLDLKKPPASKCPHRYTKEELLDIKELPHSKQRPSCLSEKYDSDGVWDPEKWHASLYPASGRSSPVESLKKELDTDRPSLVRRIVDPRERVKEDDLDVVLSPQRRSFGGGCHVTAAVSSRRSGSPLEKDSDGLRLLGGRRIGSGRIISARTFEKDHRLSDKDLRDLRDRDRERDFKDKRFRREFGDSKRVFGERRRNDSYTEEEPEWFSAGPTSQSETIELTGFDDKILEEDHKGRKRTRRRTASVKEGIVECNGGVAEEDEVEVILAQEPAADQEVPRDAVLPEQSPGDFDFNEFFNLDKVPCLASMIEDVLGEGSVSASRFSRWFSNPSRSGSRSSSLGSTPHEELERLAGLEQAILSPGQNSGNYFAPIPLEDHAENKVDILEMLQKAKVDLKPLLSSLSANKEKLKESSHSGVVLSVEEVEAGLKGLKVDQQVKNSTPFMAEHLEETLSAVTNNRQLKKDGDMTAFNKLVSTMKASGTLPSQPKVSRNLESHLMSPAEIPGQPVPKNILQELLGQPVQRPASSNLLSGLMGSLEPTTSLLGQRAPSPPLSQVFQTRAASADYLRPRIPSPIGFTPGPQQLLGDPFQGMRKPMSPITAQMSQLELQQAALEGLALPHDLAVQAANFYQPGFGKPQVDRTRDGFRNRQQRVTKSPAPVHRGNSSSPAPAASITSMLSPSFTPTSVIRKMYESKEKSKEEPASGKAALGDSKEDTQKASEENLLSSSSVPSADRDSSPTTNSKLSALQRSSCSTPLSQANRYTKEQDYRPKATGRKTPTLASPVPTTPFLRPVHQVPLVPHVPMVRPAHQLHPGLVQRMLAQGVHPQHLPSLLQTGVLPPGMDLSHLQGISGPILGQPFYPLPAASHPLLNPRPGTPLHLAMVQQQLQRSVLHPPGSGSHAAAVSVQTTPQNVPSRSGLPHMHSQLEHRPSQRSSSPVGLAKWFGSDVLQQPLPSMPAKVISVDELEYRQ
- thermal stability z-score (lipoamide; [1]): -0.03
- thermal stability z-score (lipoamide; arsenate co-treatment: none): 0.00167
- thermal stability z-score (potassium arsenate): -0.0325

Target: EIF4G1 (UniProt Q04637)
- thermal stability z-score (lipoamide; [1]): -0.164
- thermal stability z-score (lipoamide; arsenate co-treatment: none): -0.0562
- thermal stability z-score (potassium arsenate): -0.0263

Target: EIF4G2 (UniProt P78344)
- thermal stability z-score (lipoamide; [1]): -0.0525
- thermal stability z-score (lipoamide; arsenate co-treatment: none): 0.548
- thermal stability z-score (potassium arsenate): 0.233

Target: EIF4G3 (UniProt O43432)
- thermal stability z-score (lipoamide; [1]): -0.341
- thermal stability z-score (lipoamide; arsenate co-treatment: none): 0.15
- thermal stability z-score (potassium arsenate): 0.0581

Target: EIF4H (UniProt Q15056)
- thermal stability z-score (lipoamide; [1]): 0.493
- thermal stability z-score (lipoamide; arsenate co-treatment: none): 0.714
- thermal stability z-score (potassium arsenate): 0.688

Target: EIF5 (UniProt P55010)
- thermal stability z-score (lipoamide; [1]): 0.0938
- thermal stability z-score (lipoamide; arsenate co-treatment: none): 0.375
- thermal stability z-score (potassium arsenate): -1.08

Target: EIF5A (UniProt P63241)
Chain of UniProt P63241 (P63241 whole entry): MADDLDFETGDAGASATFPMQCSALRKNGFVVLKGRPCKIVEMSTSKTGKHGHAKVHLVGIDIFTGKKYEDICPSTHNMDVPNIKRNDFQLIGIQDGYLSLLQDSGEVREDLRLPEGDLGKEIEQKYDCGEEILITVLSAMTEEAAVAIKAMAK
- thermal stability z-score (lipoamide; [1]): -0.138
- thermal stability z-score (lipoamide; arsenate co-treatment: none): 0.0123
- thermal stability z-score (potassium arsenate): -0.005

Target: EIF5B (UniProt O60841)
Chain of UniProt O60841 (O60841 whole entry): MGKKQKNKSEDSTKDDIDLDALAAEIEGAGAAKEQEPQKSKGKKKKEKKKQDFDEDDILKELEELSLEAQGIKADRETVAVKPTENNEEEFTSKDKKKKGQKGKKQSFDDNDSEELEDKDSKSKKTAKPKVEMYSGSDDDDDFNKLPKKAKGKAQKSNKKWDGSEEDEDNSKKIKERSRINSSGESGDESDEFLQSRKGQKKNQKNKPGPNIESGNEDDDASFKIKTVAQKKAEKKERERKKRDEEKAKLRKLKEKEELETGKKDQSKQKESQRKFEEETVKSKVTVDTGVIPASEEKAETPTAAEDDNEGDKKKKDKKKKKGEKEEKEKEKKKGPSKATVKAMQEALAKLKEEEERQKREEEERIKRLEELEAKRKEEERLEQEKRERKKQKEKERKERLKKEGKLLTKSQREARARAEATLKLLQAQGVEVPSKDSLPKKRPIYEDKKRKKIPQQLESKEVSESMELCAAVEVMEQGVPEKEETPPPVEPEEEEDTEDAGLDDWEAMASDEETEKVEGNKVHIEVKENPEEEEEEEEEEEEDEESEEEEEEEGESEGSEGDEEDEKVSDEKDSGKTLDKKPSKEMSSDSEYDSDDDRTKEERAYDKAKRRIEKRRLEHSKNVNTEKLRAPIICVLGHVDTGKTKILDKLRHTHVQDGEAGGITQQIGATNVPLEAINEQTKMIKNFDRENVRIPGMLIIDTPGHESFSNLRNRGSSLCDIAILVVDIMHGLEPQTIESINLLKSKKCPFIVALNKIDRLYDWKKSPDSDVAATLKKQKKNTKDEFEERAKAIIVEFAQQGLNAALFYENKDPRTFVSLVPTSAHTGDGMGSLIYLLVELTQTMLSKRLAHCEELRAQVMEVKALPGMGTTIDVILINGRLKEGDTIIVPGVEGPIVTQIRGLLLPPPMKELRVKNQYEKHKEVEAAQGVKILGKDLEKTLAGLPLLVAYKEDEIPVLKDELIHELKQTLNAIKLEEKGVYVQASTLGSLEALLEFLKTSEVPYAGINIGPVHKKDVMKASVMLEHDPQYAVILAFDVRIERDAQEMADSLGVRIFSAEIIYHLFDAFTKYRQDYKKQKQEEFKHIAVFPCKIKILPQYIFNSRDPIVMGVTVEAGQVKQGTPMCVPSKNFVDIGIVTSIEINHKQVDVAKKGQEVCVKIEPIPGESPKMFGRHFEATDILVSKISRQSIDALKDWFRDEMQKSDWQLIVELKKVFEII
- thermal stability z-score (lipoamide; [1]): -0.519
- thermal stability z-score (lipoamide; arsenate co-treatment: none): -0.31
- thermal stability z-score (potassium arsenate): 1.42

Target: EIF6 (UniProt P56537)
- thermal stability z-score (lipoamide; [1]): -0.689
- thermal stability z-score (lipoamide; arsenate co-treatment: none): -0.681
- thermal stability z-score (potassium arsenate): -2.24

Target: ELAC2 (UniProt Q9BQ52)
- thermal stability z-score (lipoamide; [1]): -0.243
- thermal stability z-score (lipoamide; arsenate co-treatment: none): -0.21
- thermal stability z-score (potassium arsenate): -0.274

Target: ELAVL1 (UniProt Q15717)
- thermal stability z-score (lipoamide; [1]): -0.0114
- thermal stability z-score (lipoamide; arsenate co-treatment: none): 0.173
- thermal stability z-score (potassium arsenate): -0.765

Target: ELAVL2 (UniProt Q12926)
- thermal stability z-score (lipoamide; [1]): -0.19
- thermal stability z-score (lipoamide; arsenate co-treatment: none): -0.197
- thermal stability z-score (potassium arsenate): -0.564

Target: ELF1 (UniProt P32519)
Chain of UniProt P32519 (P32519 whole entry): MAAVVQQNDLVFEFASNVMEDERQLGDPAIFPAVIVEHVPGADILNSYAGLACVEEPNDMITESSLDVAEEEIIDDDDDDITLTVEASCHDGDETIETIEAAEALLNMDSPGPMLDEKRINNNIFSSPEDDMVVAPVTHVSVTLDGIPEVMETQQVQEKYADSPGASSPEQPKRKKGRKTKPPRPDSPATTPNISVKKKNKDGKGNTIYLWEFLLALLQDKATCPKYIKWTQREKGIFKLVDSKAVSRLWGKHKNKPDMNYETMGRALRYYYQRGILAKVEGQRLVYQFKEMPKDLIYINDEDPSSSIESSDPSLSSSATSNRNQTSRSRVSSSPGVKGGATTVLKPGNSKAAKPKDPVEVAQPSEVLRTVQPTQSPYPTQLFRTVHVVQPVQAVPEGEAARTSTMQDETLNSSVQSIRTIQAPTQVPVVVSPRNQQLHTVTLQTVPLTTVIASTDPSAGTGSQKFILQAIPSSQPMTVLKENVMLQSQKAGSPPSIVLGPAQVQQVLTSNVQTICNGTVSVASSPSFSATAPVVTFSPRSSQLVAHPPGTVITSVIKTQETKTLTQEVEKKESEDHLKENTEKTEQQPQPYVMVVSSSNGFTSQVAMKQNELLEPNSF
- thermal stability z-score (lipoamide; [1]): -0.422
- thermal stability z-score (lipoamide; arsenate co-treatment: none): -0.185
- thermal stability z-score (potassium arsenate): -0.287

Target: ELMO2 (UniProt Q96JJ3)
- thermal stability z-score (lipoamide; [1]): -0.114
- thermal stability z-score (lipoamide; arsenate co-treatment: none): 0.245
- thermal stability z-score (potassium arsenate): 0.457

Target: ELMOD2 (UniProt Q8IZ81)
- thermal stability z-score (lipoamide; [1]): -0.403
- thermal stability z-score (lipoamide; arsenate co-treatment: none): -0.238
- thermal stability z-score (potassium arsenate): 0.198
